In publication PMC8256334, “Simultaneous Determination of a Novel PD-L1 Inhibitor, IMMH-010, and Its Active Metabolite, YPD-29B, in Rat Biological Matrices by Polarity-Switching Liquid Chromatography-Tandem Mass Spectrometry: Application to ADME Studies” (Frontiers in Pharmacology, 2021):

Experiments:
[1] = tested on: various carcinoma xenograft models; conditions: cited from earlier work
[2] = Stability in rat plasma; assay type: in vitro ADME; conditions: for Accuracy (RE, %) / Measured conc.: n = 5; for stability during the sample preparation, storage and analysis: rat plasma: 4°C 4 h, −20°C 3 months, three freeze-thaw cycles, autosampler 10°C 48 h
Protocol: Plasma: IMMH-010 is an ester-containing compound. […] Therefore, heparin sodium and NaF were dissolved with 0.9% w/v sodium chloride to prepare a mixture of 0.5% heparin sodium and 500 mM NaF. All blood was withdrawn into EP tubes containing this mixture (1:9 v/v mixture:blood) followed by plasma separation. The plasma standards for IMMH-010 were prepared at 1, 2, 5, 10, 20, 80, 120 and 200 ng/ml, and those for YPD-29B were prepared at 2.5, 5, 10, 20, 50, 400, 600 and 1,000 ng/ml. QC samples were prepared at 1, 2, 40 and 160 ng/ml for IMMH-010 and 2.5, 5, 200 and 800 ng/ml for YPD-29B.
For short-term and long-term stability, plasma samples were kept at 4°C for 4 h and −20°C for 3 months, respectively. To evaluate freeze-thaw stability, samples were frozen at −20°C for 24 h and thawed at 4°C for three cycles. […] Stability assays of IMMH-010 and YPD-29B were performed at two QC levels (high and low QC) (n = 5).

[3] = prepared rat plasma samples, at 15°C in auto-sampler (24 h), spiked 2 ng/ml IMMH-010, 5 ng/ml YPD-29B
[4] = prepared rat plasma samples, at 15°C in auto-sampler (24 h), spiked 160 ng/ml IMMH-010, 800 ng/ml YPD-29B
[5] = prepared rat plasma samples, at 15°C in auto-sampler (48 h), spiked 2 ng/ml IMMH-010, 5 ng/ml YPD-29B
[6] = prepared rat plasma samples, at 15°C in auto-sampler (48 h), spiked 160 ng/ml IMMH-010, 800 ng/ml YPD-29B
[7] = rat plasma, 4°C (4 h), spiked 2 ng/ml IMMH-010, 5 ng/ml YPD-29B
[8] = rat plasma, 4°C (4 h), spiked 160 ng/ml IMMH-010, 800 ng/ml YPD-29B
[9] = rat plasma, stored at −20°C (3 months), spiked 2 ng/ml IMMH-010, 5 ng/ml YPD-29B
[10] = rat plasma, stored at −20°C (3 months), spiked 160 ng/ml IMMH-010, 800 ng/ml YPD-29B
[11] = rat plasma, three freeze–thaw cycles, spiked 2 ng/ml IMMH-010, 5 ng/ml YPD-29B
[12] = rat plasma, three freeze–thaw cycles, spiked 160 ng/ml IMMH-010, 800 ng/ml YPD-29B

SMILES | Accuracy (RE, %) [2, 3] | Measured conc. [2, 3] | Accuracy (RE, %) [2, 4] | Measured conc. [2, 4] | Accuracy (RE, %) [2, 5] | Measured conc. [2, 5] | Accuracy (RE, %) [2, 6] | Measured conc. [2, 6] | stability during the sample preparation, storage and analysis [2] | Accuracy (RE, %) [2, 7] | Measured conc. [2, 7] | Accuracy (RE, %) [2, 8] | Measured conc. [2, 8] | Accuracy (RE, %) [2, 9] | Measured conc. [2, 9] | Accuracy (RE, %) [2, 10] | Measured conc. [2, 10] | Accuracy (RE, %) [2, 11] | Measured conc. [2, 11] | Accuracy (RE, %) [2, 12] | other results
CC(C)OC(=O)C(CO)NCc1cc(Cl)c(OCc2cccc(-c3ccccc3)c2Br)cc1OCc1cccnc1 (centres unmarked) [IMMH-010, 2-[4-(2-bromo-biphenyl-3-ylmethoxy)-5-chloro-2-(pyridin-3-ylmethoxy)-benzylamino]-3-hydroxy-propionic acid isopropyl ester] | −6.0% | 1.88 ± 0.21 ng/mL | −7.5% | 148 ± 4 ng/mL | 2.0% | 2.04 ± 0.07 ng/mL | −3.8% | 154 ± 4 ng/mL | stable | 2.5% | 2.05 ± 0.10 ng/mL | 8.1% | 173 ± 20 ng/mL | 12.0% | 2.24 ± 0.10 ng/mL | 3.8% | 166 ± 4 ng/mL | 5.5% | 2.11 ± 0.22 ng/mL | −1.9% | antitumor activity [1]: significant antitumor activity; stability in rat plasma with esterase inhibitor ([2]; 4°C, rat plasma containing 50 mM NaF, preliminary results): stable; Measured conc. [2, 12]: 157 ± 4 ng/mL
O=C(O)[C@H](CO)NCc1cc(Cl)c(OCc2cccc(-c3ccccc3)c2Br)cc1OCc1cccnc1 [YPD-29B] | −1.6% | 4.92 ± 0.25 ng/mL | 5.6% | 845 ± 13 ng/mL | −12.2% | 4.39 ± 0.19 ng/mL | −1.1% | 791 ± 17 ng/mL | stable | −4.8% | 4.76 ± 0.12 ng/mL | 4.0% | 832 ± 8 ng/mL | −2.6% | 4.87 ± 0.50 ng/mL | −6.5% | 748 ± 3 ng/mL | −6.2% | 4.69 ± 0.21 ng/mL | 3.9% | Measured conc. [2, 12]: 831 ± 51 ng/mL
